Paper PMC7956643, “Synthesis of Novel Pyrido[1,2-c]pyrimidine Derivatives with 6-Fluoro-3-(4-piperidynyl)-1,2-benzisoxazole Moiety as Potential SSRI and 5-HT1A Receptor Ligands” (International Journal of Molecular Sciences, 2021)
Marks after values point to notes of the source that are not given here.

How the values were obtained:
5-HT1A receptor [1] = biological target: T1, 5-HT1A receptor (Mus musculus, UniProt Q64264); test: Effect of WAY-100635 on the hypothermia induced by tested compounds; type: in vivo, CD-1 mice; details: mice
T1 construct: from tissue; host or cells: whole animal, male CD-1 mice
T1 sequence (Q64264 1-421): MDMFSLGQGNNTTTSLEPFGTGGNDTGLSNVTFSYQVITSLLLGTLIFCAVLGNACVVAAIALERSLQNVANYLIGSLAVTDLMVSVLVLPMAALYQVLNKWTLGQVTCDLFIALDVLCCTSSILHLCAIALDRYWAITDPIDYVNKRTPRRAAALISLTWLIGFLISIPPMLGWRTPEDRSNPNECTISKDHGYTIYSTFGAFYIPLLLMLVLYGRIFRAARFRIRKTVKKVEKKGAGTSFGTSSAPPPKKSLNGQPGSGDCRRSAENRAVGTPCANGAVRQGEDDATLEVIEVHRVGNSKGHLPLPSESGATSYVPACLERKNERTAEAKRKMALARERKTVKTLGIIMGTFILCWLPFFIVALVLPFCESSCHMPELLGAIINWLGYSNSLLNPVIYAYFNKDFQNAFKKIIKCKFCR
Protocol: (§1) The experiments were performed on male CD-1 mice (23–40 g). The animals were kept at room temperature (21 ± 2 °C) on a natural day-night cycle (March–October) and housed under standard laboratory conditions. They had free access to food and tap water before the experiment. Each experimental group consisted of 6–8 animals/dose. All the animals were used only once. 8-Hydroxy-2-(di-n-propylamino)tetralin hydro-bromide (8-OH-DPAT, Research Biochemical Inc.) was used as aqueous solution. […] Vehicle group was administered as 10% aqueous solution of dimethyl sulphoxide (DMSO). 8-OH-DPAT was injected subcutaneously (sc); 6a and 7g were given intraperitoneally (ip) in a volume of 10 mL/kg/mice. The obtained data were analyzed by Dunnett’s test (one drug administration) or by the Newman–Keuls test (two drugs administrations). Forced swim test: the obtained data was evaluated by one-way analysis of variance (ANOVA) followed by the Dunnett’s multiple comparisons test: p < 0.05 was considered significant.
(§2) The results were expressed as a change in body temperature (Δt) with respect to the basal body temperature, as measured at the beginning of the experiment.

5-HT6 receptors = biological target: T2, 5-HT6 receptors (Homo sapiens, UniProt P50406); test: 5-HT6 radioligand binding assay; details: [3H]-LSD; HEK293 cells, human receptor
T2 construct: expressed in transfected cells
T2 sequence (P50406 whole entry): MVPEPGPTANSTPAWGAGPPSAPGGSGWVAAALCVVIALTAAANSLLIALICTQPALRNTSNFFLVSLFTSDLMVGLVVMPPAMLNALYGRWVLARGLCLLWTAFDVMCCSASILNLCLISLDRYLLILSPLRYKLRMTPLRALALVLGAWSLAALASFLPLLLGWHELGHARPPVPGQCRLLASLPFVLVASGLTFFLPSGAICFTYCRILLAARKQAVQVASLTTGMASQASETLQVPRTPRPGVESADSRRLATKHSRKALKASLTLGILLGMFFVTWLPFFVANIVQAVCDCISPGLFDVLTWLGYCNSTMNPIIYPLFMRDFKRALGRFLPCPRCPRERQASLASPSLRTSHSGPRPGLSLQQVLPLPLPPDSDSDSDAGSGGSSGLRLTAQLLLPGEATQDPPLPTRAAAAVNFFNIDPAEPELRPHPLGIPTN
Protocol: (§3) In vitro radioligand binding assays for 5-HT2A, 5-HT6, 5-HT7 and D2 receptors were carried out using methods published by Zajdel et al.. For the assays, HEK293 cell cultures stably expressing the investigated human receptors were used. Cell pellets were thawed and homogenized in 20 vol of assay buffer using an Ultra Turrax tissue homogenizer, then centrifuged twice at 35000 g for 20 min at 4 °C, with incubation for 15 min at 37 °C in between. The composition of the assay buffers was as follows: for 5-HT2A receptors—50 mM Tris-HCl, 0.1 mM EDTA, 4 mM MgCl2 and 0.1% ascorbate; for 5-HT6 receptors—50 mM Tris-HCl, 0.5 mM EDTA, 4 mM MgCl2; for 5-HT7 receptors—50 mM Tris-HCl, 4 mM MgCl2, 10 µM pargyline and 0.1% ascorbate; for D2 receptors—50 mM Tris-HCl, 1 mM EDTA, 4 mM MgCl2, 120 mM NaCl, 5 mM KCl, 1.5 mM CaCl2 and 0.1% ascorbate. All assays were incubated in total volume of 200 mL in 96-well microtitre plates for 1 h at 37 °C, except for 5-HT2A receptors which were incubated at room temperature for 1.5 h. The process of equilibration was terminated by rapid filtration through Unifilter plates with a 96-well cell harvester, and radioactivity retained on the filters was quantified on a Microbeta plate reader (PerkinElmer, USA). For displacement studies, the assay samples contained as radioligands (PerkinElmer): 2 nM [^3H]-ketanserin (spec. act. 53.4 Ci/mmol) for 5-HT2A receptors; 2 nM [^3H]-LSD (spec. act. 83.6 Ci/mmol) for 5-HT6 receptors; 0.6 nM [^3H]-5-CT (spec. act. 39.2 Ci/mmol) for 5-HT7 receptors and [^3H]-raclopride (spec. act. 76.0 Ci/mmol) for D2 receptors. […] Each compound was tested in triplicate at 7–8 concentrations (10^-11-10^-4 M). The inhibition constants (Ki) were calculated from the Cheng–Prusoff equation [46]. Results were expressed as means of at least two separate experiments.

5-HT7 receptors = biological target: T3, 5-HT7 receptors (Homo sapiens, UniProt P34969); test: 5-HT7 radioligand binding assay; details: [3H]-5-CT; HEK293 cells, human receptor
T3 construct: expressed in transfected cells
T3 sequence (P34969 whole entry): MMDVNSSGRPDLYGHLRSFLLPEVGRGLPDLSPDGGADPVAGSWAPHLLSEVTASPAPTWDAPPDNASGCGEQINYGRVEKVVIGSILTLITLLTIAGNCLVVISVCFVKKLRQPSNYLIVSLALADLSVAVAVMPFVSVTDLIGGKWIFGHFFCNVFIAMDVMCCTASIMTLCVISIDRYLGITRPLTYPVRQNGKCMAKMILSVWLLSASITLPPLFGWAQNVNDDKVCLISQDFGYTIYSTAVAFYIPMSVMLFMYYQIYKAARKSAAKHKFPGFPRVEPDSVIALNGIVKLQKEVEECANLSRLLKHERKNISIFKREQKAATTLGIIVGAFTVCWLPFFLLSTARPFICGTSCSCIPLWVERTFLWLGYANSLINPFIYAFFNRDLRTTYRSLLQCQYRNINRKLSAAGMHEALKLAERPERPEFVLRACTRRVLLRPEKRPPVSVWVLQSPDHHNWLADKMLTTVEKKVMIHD
Protocol: as §3

5-HT1A receptor [2] = biological target: T1, 5-HT1A receptor; test: Body temperature in mice (induced hypothermia); type: in vivo, CD-1 mice; details: mice
Protocol: as §1, §2

D2 receptors = biological target: T4, D2 receptors (Homo sapiens, UniProt P14416); test: D2 radioligand binding assay; details: [3H]-raclopride; HEK293 cells, human receptor
T4 construct: expressed in transfected cells
T4 sequence (P14416 whole entry): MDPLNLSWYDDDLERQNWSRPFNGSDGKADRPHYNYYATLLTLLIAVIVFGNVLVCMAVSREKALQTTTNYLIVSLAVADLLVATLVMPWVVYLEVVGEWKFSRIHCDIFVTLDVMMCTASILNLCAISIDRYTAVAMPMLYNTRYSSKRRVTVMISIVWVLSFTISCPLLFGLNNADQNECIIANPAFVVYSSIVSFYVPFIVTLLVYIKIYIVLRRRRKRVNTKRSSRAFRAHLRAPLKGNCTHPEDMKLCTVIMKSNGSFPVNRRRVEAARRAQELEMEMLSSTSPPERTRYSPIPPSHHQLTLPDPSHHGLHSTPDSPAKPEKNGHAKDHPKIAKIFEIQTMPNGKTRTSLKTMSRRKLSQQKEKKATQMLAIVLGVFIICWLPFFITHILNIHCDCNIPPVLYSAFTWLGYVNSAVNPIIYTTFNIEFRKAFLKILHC
Protocol: as §3

5-HT2A receptors = biological target: T5, 5-HT2A receptors (Homo sapiens, UniProt P28223); test: 5-HT2A radioligand binding assay; details: [3H]-ketanserin; HEK293 cells, human receptor
T5 construct: expressed in transfected cells
T5 sequence (P28223 whole entry): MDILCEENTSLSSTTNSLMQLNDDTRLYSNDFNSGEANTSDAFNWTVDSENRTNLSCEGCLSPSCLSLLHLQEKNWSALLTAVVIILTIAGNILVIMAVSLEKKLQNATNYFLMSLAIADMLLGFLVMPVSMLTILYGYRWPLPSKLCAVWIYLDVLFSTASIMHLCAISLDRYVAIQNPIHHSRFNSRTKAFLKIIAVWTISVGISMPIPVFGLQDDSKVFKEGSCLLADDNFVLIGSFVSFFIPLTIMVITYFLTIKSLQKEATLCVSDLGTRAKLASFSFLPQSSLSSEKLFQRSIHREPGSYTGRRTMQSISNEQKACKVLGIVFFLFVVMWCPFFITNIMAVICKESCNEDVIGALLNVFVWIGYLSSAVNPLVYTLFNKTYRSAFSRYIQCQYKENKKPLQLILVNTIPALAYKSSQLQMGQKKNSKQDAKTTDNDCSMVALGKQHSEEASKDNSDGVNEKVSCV
Protocol: as §3, with “All assays were incubated in total volume of 200 mL in 96-well microtitre plates for 1 h at 37 °C, except for 5-HT2A receptors which were incubated at room temperature for 1.5 h.” left out

SERT protein = biological target: T6, SERT protein (Rattus norvegicus, UniProt P31652); test: SERT radioligand binding assay; details: [3H]-citalopram 1.0 nM; rat cortex tissue
T6 construct: from tissue; host or cells: rat cortex
T6 sequence (P31652 whole entry): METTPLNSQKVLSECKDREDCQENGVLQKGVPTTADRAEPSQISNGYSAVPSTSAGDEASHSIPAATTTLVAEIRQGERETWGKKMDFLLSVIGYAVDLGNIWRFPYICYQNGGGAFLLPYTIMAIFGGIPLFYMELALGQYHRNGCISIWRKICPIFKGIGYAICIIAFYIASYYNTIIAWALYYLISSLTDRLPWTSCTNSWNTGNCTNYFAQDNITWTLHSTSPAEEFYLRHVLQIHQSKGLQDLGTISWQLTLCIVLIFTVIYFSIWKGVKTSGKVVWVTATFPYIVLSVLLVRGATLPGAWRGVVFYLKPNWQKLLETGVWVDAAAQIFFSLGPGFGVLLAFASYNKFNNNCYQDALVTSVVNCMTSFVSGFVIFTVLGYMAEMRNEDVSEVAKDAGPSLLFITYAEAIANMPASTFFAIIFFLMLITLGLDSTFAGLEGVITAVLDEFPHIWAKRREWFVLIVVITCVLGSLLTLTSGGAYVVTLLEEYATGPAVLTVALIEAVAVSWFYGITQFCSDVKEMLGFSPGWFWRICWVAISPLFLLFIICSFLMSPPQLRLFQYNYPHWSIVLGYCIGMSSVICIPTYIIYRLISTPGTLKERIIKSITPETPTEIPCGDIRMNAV
Protocol: Radioligand binding was performed using rat cortex tissue. All assays were carried out in duplicate. First, 50 µL working solution of the tested compounds, 50 µL [^3H]-citalopram (final concentration 1.0 nM) and 150 µL tissue suspension, prepared in assay buffer (50 mM Tris. pH 7.7; 150 mM NaCl; 5 mM KCl), were transferred to a polypropylene 96-well microplate using 96-wells pipetting station Rainin Liquidator (MettlerToledo). […] The reaction was terminated by rapid filtration through GF/B filter mate presoaked with 0.3% polyethyleneimine for 30 min. Ten rapid washes with 200 µL 50 mM Tris buffer (4 °C, pH 7.7) were performed using an automated harvester system—Harvester-96 MACH III FM (Tomtec). […] Data were fitted to a one-site curve-fitting equation with Prism 6 (GraphPad Software) and Ki values were estimated from the Cheng–Prusoff equation.

human 5-HT1A receptor = biological target: T7, human 5-HT1A receptor (Homo sapiens, UniProt P08908); test: 5-HT1A radioligand binding assay; details: [3H]-8-OH-DPAT 1 nM; membranes from CHO-K1 cells with human 5-HT1A receptor
T7 construct: purchased PerkinElmer; host or cells: CHO-K1 cells, stably transfected
T7 sequence (P08908 1-422): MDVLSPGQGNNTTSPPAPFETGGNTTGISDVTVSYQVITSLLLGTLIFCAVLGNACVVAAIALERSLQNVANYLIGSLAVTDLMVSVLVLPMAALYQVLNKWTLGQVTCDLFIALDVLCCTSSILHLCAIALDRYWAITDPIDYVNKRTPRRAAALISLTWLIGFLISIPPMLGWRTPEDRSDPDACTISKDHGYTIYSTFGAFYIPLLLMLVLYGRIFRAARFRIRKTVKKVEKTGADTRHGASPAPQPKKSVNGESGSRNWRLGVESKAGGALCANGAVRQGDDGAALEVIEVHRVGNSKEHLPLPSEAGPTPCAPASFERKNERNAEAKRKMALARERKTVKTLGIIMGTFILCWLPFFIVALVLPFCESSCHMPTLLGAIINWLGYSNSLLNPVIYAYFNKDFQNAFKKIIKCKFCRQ
Protocol: Radioligand binding was performed using membranes from CHO-K1 cells stably transfected with the human 5-HT1A receptor (PerkinElmer, Fremont, CA, USA). All assays were carried out in duplicate. Then, 50 µL working solution of the tested compounds, 50 µL [^3H]-8-OH-DPAT (final concentration 1 nM) and 150 µL diluted membranes (20 µg protein per well) prepared in assay buffer (50 mM Tris, pH 7.4, 10 mM MgSO4, 0.5 mM EDTA, 0.1% ascorbic acid) were transferred to a polypropylene 96-well microplate using 96-wells pipetting station Rainin Liquidator (MettlerToledo, Columbus, OH, USA). […] The reaction was terminated by rapid filtration through GF/B filter mate, presoaked with 0.5% polyethyleneimine for 30 min. Ten rapid washes with 200 µL 50 mM Tris buffer (4 °C, pH 7.4) were performed using an automated harvester system—Harvester-96 MACH III FM (Tomtec, Hamden, CT, USA). […] Data were fitted to a one-site curve-fitting equation with Prism 6 (GraphPad Software, San Diego, CA, USA) and Ki values were estimated from the Cheng–Prusoff equation.

Structure (SMILES): COc1ccc(-c2c3n(c(=O)n(CCCCN4CCC(c5noc6cc(F)ccc56)CC4)c2=O)CCCC3)cc1 [Compound 7g, 4-(4-Methoxyphenyl)-2-{4-[4-(6-fluoro-1,2-benzoxazol)-1-piperidyl]butyl}-5,6,7,8-tetrahydro-pyrido[1,2-c]pyrimidine-1,3-dione]
- Δt ± SEM, body temperature (5-HT1A receptor [1]; WAY-100635 0.1 mg/kg sc 15 min before compound 1.25 mg/kg, 30 min): −1.2 ± 0.2 ^b °C
- Δt ± SEM, body temperature (5-HT1A receptor [1]; WAY-100635 0.1 mg/kg sc 15 min before compound 1.25 mg/kg, 60 min): −0.7 ± 0.3 ^d °C
- Δt ± SEM, body temperature (5-HT1A receptor [1]; vehicle + compound 1.25 mg/kg, 30 min): −1.5 ± 0.3 ^c °C
- Δt ± SEM, body temperature (5-HT1A receptor [1]; vehicle + compound 1.25 mg/kg, 60 min): −1.7 ± 0.3 ^c °C
- melting point: 108 to 109 °C
- Ki (5-HT6 receptors): 400 ± 32 nM
- Ki (5-HT7 receptors): 94 ± 11 nM
- Induction of hypothermia in mice (5-HT1A receptor [2]): induced hypothermia
- Δt ± SEM, body temperature (5-HT1A receptor [2]; 1.25 mg/kg ip, 30 min): −1.5 ± 0.3 ^b °C
- Δt ± SEM, body temperature (5-HT1A receptor [2]; 1.25 mg/kg ip, 60 min): −1.7 ± 0.3 ^b °C
- Δt ± SEM, body temperature (5-HT1A receptor [2]; 1.25 mg/kg ip, 90 min): −1.3 ± 0.4 ^b °C
- Δt ± SEM, body temperature (5-HT1A receptor [2]; 1.25 mg/kg ip, 120 min): −1.0 ± 0.3 °C
- Δt ± SEM, body temperature (5-HT1A receptor [2]; 2.5 mg/kg ip, 30 min): −2.2 ± 0.2 ^b °C
- Δt ± SEM, body temperature (5-HT1A receptor [2]; 2.5 mg/kg ip, 60 min): −2.8 ± 0.3 ^b °C
- Δt ± SEM, body temperature (5-HT1A receptor [2]; 2.5 mg/kg ip, 90 min): −2.9 ± 0.3 ^b °C
- Δt ± SEM, body temperature (5-HT1A receptor [2]; 2.5 mg/kg ip, 120 min): −3.0 ± 0.4 ^b °C
- Δt ± SEM, body temperature (5-HT1A receptor [2]; 5 mg/kg ip, 30 min): −2.1 ± 0.1 ^b °C
- Δt ± SEM, body temperature (5-HT1A receptor [2]; 5 mg/kg ip, 60 min): −3.4 ± 0.3 ^b °C
- Δt ± SEM, body temperature (5-HT1A receptor [2]; 5 mg/kg ip, 90 min): −3.9 ± 0.5 ^b °C
- Δt ± SEM, body temperature (5-HT1A receptor [2]; 5 mg/kg ip, 120 min): −4.2 ± 0.8 ^b °C
- Ki (D2 receptors): 10 ± 1 nM

Structure (SMILES): O=c1c(-c2ccc(F)cc2)c2n(c(=O)n1CCCCN1CCC(c3noc4cc(F)ccc34)CC1)CCCC2 [Compound 7i, 4-(4-Fluorophenyl)-2-{4-[4-(6-fluoro-1,2-benzoxazol)-1-piperidyl]butyl}-5,6,7,8-tetrahydro-pyrido[1,2-c]pyrimidine-1,3-dione]
- Ki (5-HT2A receptors): 44 ± 6 nM
- melting point: 57 to 60 °C
- Ki (5-HT6 receptors): 740 ± 183 nM
- Ki (SERT protein): 311 ± 35 nM
- Ki (5-HT7 receptors): 161 ± 27 nM
- Ki (human 5-HT1A receptor): 9.5 ± 1.1 nM
- Ki (D2 receptors): 17 ± 2 nM

Structure (SMILES): COc1ccc(-c2c3n(c(=O)n(CCCCN4CCC(c5noc6cc(F)ccc56)CC4)c2=O)CCCC3)cc1 [Compound 7g]
- Ki (5-HT2A receptors): 16 ± 2 nM
- Ki (SERT protein): 48 ± 2.4 nM
- Ki (human 5-HT1A receptor): 5 ± 0.5 nM
